Experimental data taken from US9486506B2 (Novo Nordisk A/S, priority 2011, dated 2016).
Numbered stars: 1 amine (or outer) side, 2 acyl side, 3 side chain; on linkers, the order of the positions; unused ones are H or OH. Side chains are listed from the residue outwards. Peptide text beside a SMILES is read from it. * marks the point of attachment. C18 diacid = O=C(O)CCCCCCCCCCCCCCCCC(=O)*; γGlu = O=C(O)[C@H](CCC(=O)[*:2])N[*:1]; AEEA = NCCOCCOCC(=O)O

Key:
glucagon receptor = target: T1, glucagon receptor (Homo sapiens, UniProt P47871); assay: Assay (I) Glucagon activity (cAMP biosensor, FLIPR); type: cell-based
T1 construct: expressed in transfected cells
T1 sequence (P47871 26-477): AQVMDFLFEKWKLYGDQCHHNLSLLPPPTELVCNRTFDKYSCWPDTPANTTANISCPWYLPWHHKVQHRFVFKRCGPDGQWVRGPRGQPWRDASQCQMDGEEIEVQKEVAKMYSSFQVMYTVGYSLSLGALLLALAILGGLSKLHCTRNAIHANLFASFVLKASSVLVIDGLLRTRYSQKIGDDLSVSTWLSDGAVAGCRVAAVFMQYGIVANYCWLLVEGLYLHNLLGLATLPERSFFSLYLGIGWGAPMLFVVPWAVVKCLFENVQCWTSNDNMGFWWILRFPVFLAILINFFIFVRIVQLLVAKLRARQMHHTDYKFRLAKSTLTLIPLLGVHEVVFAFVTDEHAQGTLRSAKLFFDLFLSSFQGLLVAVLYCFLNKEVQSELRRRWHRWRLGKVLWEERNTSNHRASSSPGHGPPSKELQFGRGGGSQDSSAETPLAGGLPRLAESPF

[1] = Assay (X) Chemical stability assessment by RP-UPLC; type: physicochemical; conditions: pH 8.15, 14 days at 37° C. vs 5° C., 333 μM

Structure (SMILES)	EC50 (glucagon receptor) [nM]	Chemical stability [Purity loss/14 days 37 C.] [1] [%]
CC(C)C[C@H](NC(=O)[C@H](Cc1c[nH]c2ccccc12)NC(=O)[C@H](CCCCNC(=O)COCCOCCNC(=O)CC[C@H](NC(=O)CC[C@H](NC(=O)COCCOCCNC(=O)CC[C@H](NC(=O)CCCCCCCCCCCCCCCCC(=O)O)C(=O)O)C(=O)O)C(=O)O)NC(=O)[C@@H](NC(=O)[C@H](Cc1ccccc1)NC(=O)[C@H](CC(=O)O)NC(=O)[C@H](CCC(N)=O)NC(=O)[C@H](C)NC(=O)[C@H](CCCNC(=N)N)NC(=O)[C@H](CCCNC(=N)N)NC(=O)[C@@H](NC(=O)[C@H](CC(=O)O)NC(=O)[C@H](CC(C)C)NC(=O)[C@H](Cc1ccc(O)cc1)NC(=O)[C@H](CCCCN)NC(=O)[C@H](CO)NC(=O)[C@H](Cc1ccc(O)cc1)NC(=O)[C@H](CC(=O)O)NC(=O)[C@H](CO)NC(=O)[C@@H](NC(=O)[C@H](Cc1ccccc1)NC(=O)[C@@H](NC(=O)CNC(=O)[C@H](CCC(N)=O)NC(=O)[C@H](CO)NC(=O)[C@@H](N)Cc1c[nH]cn1)[C@@H](C)O)[C@@H](C)O)[C@@H](C)O)C(C)C)C(=O)N[C@@H](CC(C)C)C(=O)N[C@@H](CO)C(=O)N[C@H](C(=O)O)[C@@H](C)O [Example 40, N^ε24-[2-[2-[2-[[(4S)-4-carboxy-4-[[(4S)-4-carboxy-4-[[2-[2-[2-[[(4S)-4-carboxy-4-(17-carboxyheptadecanoylamino)butanoyl]amino]ethoxy]ethoxy]acetyl]amino]butanoyl]amino]butanoyl]amino]ethoxy]ethoxy]acetyl]-[Thr16,Lys24,Leu27,Ser28]-Glucagon]	0.078	7.5
CC(C)C[C@H](NC(=O)[C@H](Cc1ccc(O)cc1)NC(=O)[C@H](CCCCN)NC(=O)[C@H](CO)NC(=O)[C@H](Cc1ccc(O)cc1)NC(=O)[C@H](CC(=O)O)NC(=O)[C@H](CO)NC(=O)[C@@H](NC(=O)[C@H](Cc1ccccc1)NC(=O)[C@@H](NC(=O)CNC(=O)[C@H](CCC(N)=O)NC(=O)[C@H](CO)NC(=O)[C@@H](N)Cc1c[nH]cn1)[C@@H](C)O)[C@@H](C)O)C(=O)N[C@@H](CC(=O)O)C(=O)N[C@@H](CCC(=O)O)C(=O)N[C@@H](CCCNC(=N)N)C(=O)N[C@@H](CCCNC(=N)N)C(=O)N[C@@H](C)C(=O)N[C@@H](CCC(N)=O)C(=O)N[C@@H](CC(=O)O)C(=O)N[C@@H](Cc1ccccc1)C(=O)N[C@H](C(=O)N[C@@H](CCCCNC(=O)CC[C@H](NC(=O)CC[C@H](NC(=O)COCCOCCNC(=O)COCCOCCNC(=O)CC[C@H](NC(=O)CCCCCCCCCCCCCCCCC(=O)O)C(=O)O)C(=O)O)C(=O)O)C(=O)N[C@@H](Cc1c[nH]c2ccccc12)C(=O)N[C@@H](CC(C)C)C(=O)N[C@@H](CC(C)C)C(=O)N[C@@H](CO)C(=O)N[C@H](C(=O)O)[C@@H](C)O)C(C)C [Example 41, N^ε24-[(4S)-4-carboxy-4-[[(4S)-4-carboxy-4-[[2-[2-[2-[[2-[2-[2-[[(4S)-4-carboxy-4-(17-carboxyheptadecanoylamino)butanoyl]amino]ethoxy]ethoxy]acetyl]amino]ethoxy]ethoxy]acetyl]amino]butanoyl]amino]butanoyl]-[Glu16,Lys24,Leu27,Ser28]-Glucagon]	0.13	7.3
CC(C)C[C@H](NC(=O)[C@H](Cc1ccc(O)cc1)NC(=O)[C@H](CCCNC(=N)N)NC(=O)[C@H](CO)NC(=O)[C@H](Cc1ccc(O)cc1)NC(=O)[C@H](CC(=O)O)NC(=O)[C@H](CO)NC(=O)[C@@H](NC(=O)[C@H](Cc1ccccc1)NC(=O)[C@@H](NC(=O)CNC(=O)[C@H](CCC(N)=O)NC(=O)[C@H](CO)NC(=O)[C@@H](N)Cc1c[nH]cn1)[C@@H](C)O)[C@@H](C)O)C(=O)N[C@@H](CC(=O)O)C(=O)N[C@@H](CCC(=O)O)C(=O)N[C@@H](CCCNC(=N)N)C(=O)N[C@@H](CCCNC(=N)N)C(=O)N[C@@H](C)C(=O)N[C@@H](CCC(N)=O)C(=O)N[C@@H](CC(=O)O)C(=O)N[C@@H](Cc1ccccc1)C(=O)N[C@H](C(=O)N[C@@H](CCCCNC(=O)CC[C@H](NC(=O)CC[C@H](NC(=O)COCCOCCNC(=O)COCCOCCNC(=O)CC[C@H](NC(=O)CCCCCCCCCCCCCCCCC(=O)O)C(=O)O)C(=O)O)C(=O)O)C(=O)N[C@@H](Cc1c[nH]c2ccccc12)C(=O)N[C@@H](CC(C)C)C(=O)N[C@@H](CC(C)C)C(=O)N[C@@H](CO)C(=O)N[C@H](C(=O)O)[C@@H](C)O)C(C)C [Example 42, N^ε24-[(4S)-4-carboxy-4-[[(4S)-4-carboxy-4-[[2-[2-[2-[[2-[2-[2-[[(4S)-4-carboxy-4-(17-carboxyheptadecanoylamino)butanoyl]amino]ethoxy]ethoxy]acetyl]amino]ethoxy]ethoxy]acetyl]amino]butanoyl]amino]butanoyl]-[Arg12,Glu16,Lys24,Leu27,Ser28]-Glucagon] (H-HSQGTFTSDYSRYLDERRAQDFVK([γGlu-γGlu-AEEA-AEEA-γGlu-C18 diacid])WLLST-OH)	0.153	7.2
CC(C)C[C@H](NC(=O)[C@H](Cc1ccc(O)cc1)NC(=O)[C@H](CCCCN)NC(=O)[C@H](CO)NC(=O)[C@H](Cc1ccc(O)cc1)NC(=O)[C@H](CC(=O)O)NC(=O)[C@H](CO)NC(=O)[C@@H](NC(=O)[C@H](Cc1ccccc1)NC(=O)[C@@H](NC(=O)CNC(=O)[C@H](CCC(N)=O)NC(=O)[C@H](CO)NC(=O)[C@@H](N)Cc1c[nH]cn1)[C@@H](C)O)[C@@H](C)O)C(=O)N[C@@H](CC(=O)O)C(=O)N[C@@H](C)C(=O)N[C@@H](CCCNC(=N)N)C(=O)N[C@@H](CCCNC(=N)N)C(=O)N[C@@H](C)C(=O)N[C@@H](CCC(N)=O)C(=O)N[C@@H](CC(=O)O)C(=O)N[C@@H](Cc1ccccc1)C(=O)N[C@H](C(=O)N[C@@H](CCCCNC(=O)CC[C@H](NC(=O)CC[C@H](NC(=O)COCCOCCNC(=O)COCCOCCNC(=O)CC[C@H](NC(=O)CCCCCCCCCCCCCCCCC(=O)O)C(=O)O)C(=O)O)C(=O)O)C(=O)N[C@@H](Cc1c[nH]c2ccccc12)C(=O)N[C@@H](CC(C)C)C(=O)N[C@@H](CC(C)C)C(=O)N[C@@H](CO)C(=O)N[C@H](C(=O)O)[C@@H](C)O)C(C)C [Example 43, N^ε24-[(4S)-4-carboxy-4-[[(4S)-4-carboxy-4-[[2-[2-[2-[[2-[2-[2-[[(4S)-4-carboxy-4-(17-carboxyheptadecanoylamino)butanoyl]amino]ethoxy]ethoxy]acetyl]amino]ethoxy]ethoxy]acetyl]amino]butanoyl]amino]butanoyl]-[Ala16,Lys24,Leu27,Ser28]-Glucagon]	0.049	7.6
CC(C)C[C@H](NC(=O)[C@H](Cc1c[nH]c2ccccc12)NC(=O)[C@H](CCCCNC(=O)CC[C@H](NC(=O)CC[C@H](NC(=O)COCCOCCNC(=O)COCCOCCNC(=O)CC[C@H](NC(=O)CCCCCCCCCCCCCCCCC(=O)O)C(=O)O)C(=O)O)C(=O)O)NC(=O)[C@@H](NC(=O)[C@H](Cc1ccccc1)NC(=O)[C@H](CC(=O)O)NC(=O)[C@H](CCC(N)=O)NC(=O)[C@H](C)NC(=O)[C@H](CCCNC(=N)N)NC(=O)[C@H](CCCNC(=N)N)NC(=O)[C@@H](NC(=O)[C@H](CC(=O)O)NC(=O)[C@H](CC(C)C)NC(=O)[C@H](Cc1ccc(O)cc1)NC(=O)[C@H](CCCNC(=N)N)NC(=O)[C@H](CO)NC(=O)[C@H](Cc1ccc(O)cc1)NC(=O)[C@H](CC(=O)O)NC(=O)[C@H](CO)NC(=O)[C@@H](NC(=O)[C@H](Cc1ccccc1)NC(=O)[C@@H](NC(=O)CNC(=O)[C@H](CCC(N)=O)NC(=O)[C@H](CO)NC(=O)[C@@H](N)Cc1c[nH]cn1)[C@@H](C)O)[C@@H](C)O)[C@@H](C)O)C(C)C)C(=O)N[C@@H](CCC(=O)O)C(=O)N[C@@H](CO)C(=O)N[C@H](C(=O)O)[C@@H](C)O [Example 44, N^ε24-[(4S)-4-carboxy-4-[[(4S)-4-carboxy-4-[[2-[2-[2-[[2-[2-[2-[[(4S)-4-carboxy-4-(17-carboxyheptadecanoylamino)butanoyl]amino]ethoxy]ethoxy]acetyl]amino]ethoxy]ethoxy]acetyl]amino]butanoyl]amino]butanoyl]-[Arg12,Thr16,Lys24,Glu27,Ser28]-Glucagon] (H-HSQGTFTSDYSRYLDTRRAQDFVK([γGlu-γGlu-AEEA-AEEA-γGlu-C18 diacid])WLEST-OH)	0.176	10.5
CC(C)C[C@H](NC(=O)[C@H](CC(=O)O)NC(=O)[C@H](CC(C)C)NC(=O)[C@H](Cc1ccc(O)cc1)NC(=O)[C@H](CCCNC(=N)N)NC(=O)[C@H](CO)NC(=O)[C@H](Cc1ccc(O)cc1)NC(=O)[C@H](CC(=O)O)NC(=O)[C@H](CO)NC(=O)[C@@H](NC(=O)[C@H](Cc1ccccc1)NC(=O)[C@@H](NC(=O)CNC(=O)[C@H](CCC(N)=O)NC(=O)[C@H](CO)NC(=O)[C@@H](N)Cc1c[nH]cn1)[C@@H](C)O)[C@@H](C)O)C(=O)N[C@@H](CCCNC(=N)N)C(=O)N[C@@H](CCCNC(=N)N)C(=O)N[C@@H](C)C(=O)N[C@@H](CCC(N)=O)C(=O)N[C@@H](CC(=O)O)C(=O)N[C@@H](Cc1ccccc1)C(=O)N[C@H](C(=O)N[C@@H](CCCCNC(=O)CC[C@H](NC(=O)CC[C@H](NC(=O)CC[C@H](NC(=O)COCCOCCNC(=O)COCCOCCNC(=O)CC[C@H](NC(=O)CCCCCCCCCCCCCCCCC(=O)O)C(=O)O)C(=O)O)C(=O)O)C(=O)O)C(=O)N[C@@H](Cc1c[nH]c2ccccc12)C(=O)N[C@@H](CC(C)C)C(=O)N[C@@H](CC(C)C)C(=O)N[C@@H](CO)C(=O)N[C@H](C(=O)O)[C@@H](C)O)C(C)C [Example 45, N^ε24-[(4S)-4-carboxy-4-[[(4S)-4-carboxy-4-[[(4S)-4-carboxy-4-[[2-[2-[2-[[2-[2-[2-[[(4S)-4-carboxy-4-(17-carboxyheptadecanoylamino)butanoyl]amino]ethoxy]ethoxy]acetyl]amino]ethoxy]ethoxy]acetyl]amino]butanoyl]amino]butanoyl]amino]butanoyl]-[Arg12,Leu16,Lys24,Leu27,Ser28]-Glucagon] (H-HSQGTFTSDYSRYLDLRRAQDFVK([γGlu-γGlu-γGlu-AEEA-AEEA-γGlu-C18 diacid])WLLST-OH)	0.243	3.3
